Test results as given in PMC2276102, “Phage Display Based Cloning of Proteins Interacting with the Cytoplasmic Tail of Membrane Immunoglobulins” (Developmental Immunology, 2002).

Key:
[1] = system: cHPK1 (87 amino acids of the C-terminal part of HPK1) displayed on phage; assay: Surface plasmon resonance analysis (BIACORE), HIS-tagged Ig-tail peptides on NTA sensor chip, cHPK1 phagemids injected; type: binding, murine; details: for decrease of binding capacity / relative binding affinity for cHPK1 compared to the wild type IgE tail: after the elution step, IgE measurement set to 100%; for Elution after 100 s, Relative RUs: binding of cHPK1 phage (10^9 cfu in TBS) to immobilised HIS-tagged Ig-tail, value remaining after 100 s of elution; for Injection after 60 s, Relative RUs: binding of cHPK1 phage (10^9 cfu in TBS, injected 60 s) to immobilised HIS-tagged Ig-tail, 400 (±25) RUs peptide coupled, value taken 60 s after injection; for Elution after 100 s, %: relative RUs after 100 s elution, IgE values were set to 100%
Description: Phage Display Based Cloning of Proteins Interacting with the Cytoplasmic Tail of Membrane Immunoglobulins* ROLAND GEISBERGERa , MARTIN PRLICa , GERTRUDE ACHATZ-STRAUSSBERGERa , IRIS OBERNDORFERa , ELKE LUGERb , MARINUS LAMERSc , RETO CRAMERId , ULRICH APPENZELLERd , JURGEN WIENANDSe , MICHAEL BREITENBACHa , FATIMA FERREIRAa and GERNOT ACHATZa, a Department of Genetics and General Biology, Hellbrunnerstrae 34, A-5020 Salzburg, Austria; b DRFZ, Schumannstrasse 21/22, D-10117, Germany; c MPI for Immunobiology, Stubeweg 51, D-79108 Freiburg, Germany; d SIAF, Obere Strasse 22, CH-7270 Davos, Switzerland; e Department of Biochemistry I, Universitaetsstrasse 25, D-33615 Bielefeld, Germany. The reduced quantity and quality of serum immunoglobulins (sIgs) in mutant mice expressing truncated cytoplasmic tails of IgE and IgG1 indicate an active role for the cytoplasmic domains of mIgG1 and mIgE. We used phage display technology to identify candidate proteins able to interact with the cytoplasmic tail of mIgE. […] The interaction of HPK1 with the cytoplasmic domains of membrane immunoglobulins indicate an active role of the tails as part of an isotype specific signal transduction, independent from the Iga/Igb heterodimers, and may represent a missing link to upstream regulatory elements of HPK1 activation. Keywords: Antigen receptor; Cytoplasmic tail; HPK1; Phage display; Surface plasmon resonance INTRODUCTION The B cell antigen receptor (Vitetta et al., 1980; Reth, 1992) plays a central role in almost all processes along the developmental pathway of B cells, i.e. the generation, maturation, survival and activation of B cells. B cell antigen receptors (BCR) exist as a complex of membrane immunoglobulins (mIgs) and at least two other transmem- brane polypeptides, called Ig-a and Ig-b, which connect the antigen receptor to the tyrosine phosphorylation pathways in the cell. In this complex, mIgs serve as isotype specific antigen receptors on the surface of B lymphocytes. All isotypes of mIgs can form a complex with Ig-a and Ig-b (Venkitaraman et al., 1991) indicating an involvement of all isotypes in the signal transduction pathway. The earliest detectable biochemical event that follows BCR-aggregation is increased activity of protein tyrosine kinases (PTKs) of the Syk- and Src-family, which phosphorylate distinct tyrosine residues within conserved sequences present on the cytoplasmic portions of Ig-a and Ig-b (Reth, 1992). Phosphorylation of Ig-a and Ig-b occurs on the tyrosine residues of immuno receptor tyrosine-based activation motif (ITAM) and on the non-ITAM tyrosine 204 of Ig-a (Engels et al., 2001). Once phosphorylated, ITAMs provide binding sites for SRC homology 2 (SH2) domains of the Src and Syk PTKs and the adaptor protein SLP-65 (Engels et al., 2001), thus initiating several signaling pathways, the most important of which are the PLC-g, the Ras and the PI3-kinase pathways (Reth and Wienands, 1997; Kurosaki, 1999). Various external stimuli such as cytokine binding, interaction with other cells as well as stress factors including osmotic shock, heat or ionizing irradiation can influence the signaling cascade initiated by BCR engagement and they can contribute to differential alteration of the pattern of gene expression. Obviously, between Ig subclasses, there should be no differences in the transduction of signals regulating the central features of the immune system (Nussenzweig, 1997) such as the control of allelic exclusion, early cellular transitions and in the function of the membrane- bound immunoglobulin as a receptor for antigen capture ISSN 1044-6672 print q 2002 Taylor & Francis Ltd DOI: 10.1080/1044667031000137584 *Presented at the Proceedings of the 4th Germinal Center Conference, Groningen, The Netherlands, June 2002. Corresponding author. Address: Institut fur Genetik, Hellbrunnerstrae 34, A-5020 Salzburg, Austria. Tel.: 43-662-8044-5764. Fax: 43-662- 8044-144. […]

[2] = system: cHPK1 (87 amino acids of the C-terminal part of HPK1) displayed on phage; assay: Surface plasmon resonance analysis (BIACORE), IgE tail peptide covalently coupled to CM5 sensor chip, cHPK1 phagemids injected; type: binding, murine; details: CM5 sensor chip with covalently coupled IgE tail peptide (1683 RUs), random peptide as reference channel; 1 x 10^9 cHPK1 displaying phages injected over 200 s, washing with TBS
Description: Phage Display Based Cloning of Proteins Interacting with the Cytoplasmic Tail of Membrane Immunoglobulins* ROLAND GEISBERGERa , MARTIN PRLICa , GERTRUDE ACHATZ-STRAUSSBERGERa , IRIS OBERNDORFERa , ELKE LUGERb , MARINUS LAMERSc , RETO CRAMERId , ULRICH APPENZELLERd , JURGEN WIENANDSe , MICHAEL BREITENBACHa , FATIMA FERREIRAa and GERNOT ACHATZa, a Department of Genetics and General Biology, Hellbrunnerstrae 34, A-5020 Salzburg, Austria; b DRFZ, Schumannstrasse 21/22, D-10117, Germany; c MPI for Immunobiology, Stubeweg 51, D-79108 Freiburg, Germany; d SIAF, Obere Strasse 22, CH-7270 Davos, Switzerland; e Department of Biochemistry I, Universitaetsstrasse 25, D-33615 Bielefeld, Germany. The reduced quantity and quality of serum immunoglobulins (sIgs) in mutant mice expressing truncated cytoplasmic tails of IgE and IgG1 indicate an active role for the cytoplasmic domains of mIgG1 and mIgE. We used phage display technology to identify candidate proteins able to interact with the cytoplasmic tail of mIgE. […] The interaction of HPK1 with the cytoplasmic domains of membrane immunoglobulins indicate an active role of the tails as part of an isotype specific signal transduction, independent from the Iga/Igb heterodimers, and may represent a missing link to upstream regulatory elements of HPK1 activation. […]

[3] = target: HIS-tagged cytoplasmic tail of membrane IgE (28 amino acids) (mouse); assay: SPR; BIACORE CM5 chip; IgE-tail peptide covalently coupled to Fc1 (1683 RUs), random peptide (1704 RUs) on Fc2 as reference; 1 x 10^9 cfu phagemids in TBS injected, then washing with TBS; relative response
[4] = target: HIS-tagged cytoplasmic tail of IgG2a; assay: SPR; BIACORE NTA sensor chip; HIS-tagged Ig-tail peptides (150 nM in 0.01 M Hepes, 0.15 M NaCl, 50 mM EDTA, 0.005% surfactant P20) captured via the HIS-tag, 400 (+/-25) RUs each; 10^9 cfu cHPK1 phage in TBS injected 1 min, 100 s elution; relative RUs, IgE set to 100%
[5] = target: HIS-tagged cytoplasmic tail of IgM (KVK); assay: as above
[6] = target: HIS-tagged cytoplasmic tail of membrane IgE (28 amino acids) (mouse); assay: as above
[7] = target: HIS-tag deficient random peptide; assay: as above
[8] = target: HIS-tagged cytoplasmic tail of IgG1 (mouse); assay: as above
[9] = target: HIS-tagged cytoplasmic tail of IgG3; assay: as above
[10] = target: HIS-tagged cytoplasmic tail of IgG2b; assay: as above
[11] = target: HIS-tagged modified IgE cytoplasmic tail lacking the four amino acids T-F-Q-D (IgEDTFQD) (mouse); assay: as above

| Substance | decrease of binding capacity / relative binding affinity for cHPK1 compared to the wild type IgE tail [1] | Elution after 100 s, Relative RUs [1] | Injection after 60 s, Relative RUs [1] | Elution after 100 s, % [1] | other results |
| --- | --- | --- | --- | --- | --- |
| (6 H) KVKWIFSSVVELKQKISPDYRNMI- GQGA [IgG2b, HIS-tagged synthetic cytoplasmic tail of IgG2b] | about 60% | 72 RUs | 276 RUs | 41% | – |
| (6 H) KVKWIFSSVVELKQTISPDYRNMI- GQGA [IgG2a, HIS-tagged synthetic cytoplasmic tail of IgG2a] | about 60% | 68 RUs | 284 RUs | 38% | – |
| (6 H) KVKWIFSSVVELKQTLVPEYKNMI- GQAP [IgG1, HIS-tagged synthetic cytoplasmic tail of IgG1] | – | 128 RUs | 819 RUs | 72% | – |
| (6 H) KVKWIFSSVVQVKQTAIPDYRNMI- GQGA [IgG3, HIS-tagged synthetic cytoplasmic tail of IgG3] | – | 120 RUs | 744 RUs | 67% | – |
| (6 H) KVKWVFSTPMQDTPQYA- NILQTRA [IgEDTFQD, HIS-tagged IgE cytoplasmic tail peptide lacking the TFQD amino acids] | 47% | 94 RUs | 563 RUs | 53% | – |
| HHHHHHKVKWVFSTPMQDTPQTFQDYA- NILQTRA [IgE, HIS-tagged synthetic peptide of the 28 amino acid long cytoplasmic tail of mIgE] | – | 177 RUs | 691 RUs | – | relative increase in affinity after the elution step [2]: 500 RUs |
| SPHRCRIHPRPSKTMPTSSRPGH- RCDASTH [Random peptide, HIS-tag deficient random peptide used as control, reference compound] | – | ~0 RUs | 310 RUs | ~0% | – |
| cHPK1, 87 amino acids of the C-terminal part of murine hematopoietic progenitor kinase 1 (HPK1), displayed on phage (domain or fragment) | – | – | – | – | relative RUs after the elution step [3]: 500 RUs; % of the IgE tail's RUs after elution [4]: 38%; relative RUs 60 s after injection [4]: 284 RU; relative RUs 100 s after elution [4]: 68 RU; relative RUs 60 s after injection [5]: 617 RU; relative RUs 60 s after injection [6]: 691 RU; relative RUs 100 s after elution [6]: 177 RU; relative RUs 60 s after injection [7]: 310 RU; % of the IgE tail's RUs after elution [8]: 72%; relative RUs 60 s after injection [8]: 819 RU; relative RUs 100 s after elution [8]: 128 RU; % of the IgE tail's RUs after elution [9]: 67%; relative RUs 60 s after injection [9]: 744 RU; relative RUs 100 s after elution [9]: 120 RU; % of the IgE tail's RUs after elution [10]: 41%; relative RUs 60 s after injection [10]: 276 RU; relative RUs 100 s after elution [10]: 72 RU; % of the IgE tail's RUs after elution [11]: 53%; relative RUs 60 s after injection [11]: 563 RU; relative RUs 100 s after elution [11]: 94 RU |
